Test results reported in US5017618A, “Labile derivatives of ketone analogs of 3-substituted-1-alkylamino-2-propanols and their use as beta-adrenergic blockers” (priority 1989, dated 1991).
Blank lines part the entries; values can stand above or below the molecule they belong to.

How the values were obtained:
[1] = tested on: rabbit iris-ciliary body; assay: Reduction of ketone in the iris-ciliary body; format: in vivo; details: 0.5% hydrochloride salt (w/v); 1.0 hour after instillation
Experimental: It was then shown that reduction of 1-(isopropylamino)-3-(1-naphthyloxy)-2-propanone takes place in the iris-ciliary body. The compound was administered to the rabbit eye in propylene glycol/ethanol/pH=5.9 ophthalmic buffer (25:25:50 mixture, v/v) solution (concentration 0.5% hydrochloride salt, w/v). The iris-ciliary body was removed, extracted and analyzed 1.0 hour after the instillation of the compound, as described in the preceding paragraph.

[2] = Spontaneous isomerization of HCl salts of oximes (I'); format: physicochemical; details: HCl salts in solution
From the text: Spontaneous isomerization of HCl salts of compounds of formula (I') was also observed in solution; it was not observed in oxalates or bases of (I'). […] Acid-catalyzed isomerization was in most cases found to result in formation of the opposite isomers in solutions and in suspensions, respectively. In suspension, clearly the less soluble isomer is forming.

[3] = in vivo
Experimental: A group of seven adult male Sprague-Dawley rats weighing 150-250 g was used. […] After 1, 3, 5, 20, 40 and 60 minutes, one mL of blood was withdrawn from the jugular vein and dropped immediately into a tared tube containing 1 mL of ice-cold acetonitrile. The tubes were vigorously shaken, centrifuged, decanted and analyzed for propranolol 1a and propranolone oxime 5a by HPLC. Quantitation was done by using a calibration curve obtained by addition of known amounts of propranolol oxime HCl 6a to blood obtained from a control rat pretreated with saline solution.
A high pressure liquid chromatography (HPLC) method was developed for the assay of the β-blockers and their ketoxime analogs in biological fluids. […] An ASI reverse phase chrompack C18 column, operated at ambient temperature, was used for all separation. The mobile phase used for separation of propranolol 1a and propranolone oxime 5a consisted of water (90 mL), 1-heptanesulfonic acid (1g), 0.1M acetic acid (10 mL), 0.1M triethanolamine (100 mL) and methanol (799 mL).

[4] = tested on: ocular tissues of rabbits; assay: In vivo distribution-metabolism in ocular tissues of rabbits; details: for Concentration of propranolol: after topical propranolol.HCl 1a 1%
Experimental: (§1) Adult male New Zealand albino rabbits weighing 2.5-3.5 kg were used. Standard doses of 100 μl of 1% solution of the drugs in saline solution were administered topically to both eyes of each rabbit. After appropriate time intervals (30, 60 and 120 minutes), the animals were sacrificed. Aqueous humor was obtained by making a single puncture at the limbus using a 25 g×5/8" needle attached to 1 cm^3 syringe. Then the cornea and the iris-ciliary body were isolated. The tissues were pooled and homogenized using a Tekmar SDT tissuemizer in ice cold perchloric acid (0.05M) which contained 0.05% sodium metabisulfite as antioxidant. Samples were then rehomogenized in CH3 OH to prepare 10% homogenates, transferred to micro-filters and centrifuged for 20 minutes at 10000 r/minute to precipitate proteins. Aqueous humor was analyzed as such without any further dilution. Aliquots of 5-20 μl of the 10% tissue homogenate samples were analyzed by HPLC.

[5] = as above; details: rabbit, topical or ocular, 1 %
Experimental: as §1

[6] = tested on: rabbit eyes; assay: Local action of the drugs on the eyes (irritation, congestion, redness, lacrimation); format: in vivo, rabbit (male New Zealand albino); details: for ocular irritation: 1% and 2.5%, both eyes, rabbits
[7] = tested on: rabbit cornea (intraocular enzymes); format: in vivo; details: rabbit, in vivo
Experimental: The tissue was homogenized in an alkaline buffer (pH 10.0) to give 10% (w/v) homogenate, and extracted twice with equal volumes of methylene chloride/diethyl ether mixture (1:4, v/v) by shaking for 15 minutes. The organic layer was separated, then re-extractedwith an equal volume of aqueous 0.1M hydrochloric acid solution. The aqueous phase was made alkaline (pH 10.0) and extracted with methylene chloride/diethyl ether, the organic layer was transferred to a deactivated glass vial, and the solvent was evaporated at reduced pressure under nitrogen stream. The residue was dissolved in 0.01M hydrochloric acid solution and analyzed by high-performance liquid chromatography (HPLC). A Supelcosil LC-8-DB analytical column (7.5 cm×4.6 mm i.d., 3 μm particle size) and mobile phase (1.5 mL/min flow rate) consisting of 30% acetonitrile in an aqueous buffer solution of 0.02M monobasic potassium phosphate (adjusted to pH 3.0 with phosphoric acid) and 0.01 (v/v) triethylamine. UV detection at 280 nm was applied. […] The same experiment was carried out by administering 1-(isopropylamino)-3-(2-allylphenoxy)-2-propanone oxime hydrochloride salt in 2% (w/v) aqueous solution. […]

[8] = tested on: isoprenaline-induced tachycardia; assay: Effect on isoprenaline-induced tachycardia in rats (β-adrenergic antagonist activity); format: in vivo, rat (male Sprague-Dawley); details: rats; 6 mg/kg i.v.; isoprenaline 50 μg/kg s.c.; FIG. 1
Experimental: (§2) Groups of seven male Sprague-Dawley rats weighing 150-250 g were used. Each animal was anesthetized with sodium pentobarbital (50 mg/kg) and the jugular vein was cannulated with PE50 tubing. This cannula was subcutaneously threaded around the neck and exteriorized dorsally. The cannula was filled with heparin solution ([…]) and sealed with a solid 22-gauge stylet. Animals were housed in individual stainless steel cages and at least 24 hours were allowed for recovery from the surgery. Food and water were provided ad libitum. On the day of the experiment, the heart rate of each rat was monitored with a plethsmograph and the data recorded on a Physioscribe II recorder. One hour was allowed as an equilibration period before any drugs were administered. Drugs were dissolved in normal saline as 0.3% solution and were administered intravenously at a dose of 6 mg/kg. The resting heart rate was then recorded after 1, 3, 5, 10 and 15 minutes following i.v. injection. […] A control group of seven animals was intravenously administered saline solution and was treated exactly in the same manner as the drug-treated groups. The significance of the difference between the effect of saline solution and the drugs under investigation on the resting heart rate and on isoprenaline tachycardia was analyzed using the student's "t" test. Values are given as mean ±S.E. of the mean. […] (.) carteolol HCl, 1c; .circle. propranolone ketoxime HCl, 6a; (.gradient.) timolone ketoxime oxalate, 6b; (Δ) N-isopropyl timolone ketoxime HCl, 6d; carteolone oxime HCl, 6c; and (---) saline solution. […] Drugs were administered to groups of 5 rats using a stomach tube and the heart rate was recorded for 1 hour. […] A control group of 5 rats was treated exactly in the same manner after the oral administration of the appropriate volume of saline solution.

[9] = tested on: IOP of rabbits, treated eye; assay: Unilateral administration, IOP of rabbits; format: in vivo, rabbit; details: 0.5% and 1.0% solution in saline, one eye
Experimental: (§3) The animals were kept in individual cages with free access to food and water. Intraocular pressure was measured using a Digilab model 30R pneumatonometer. The pneumatonometer readings were checked at least twice a day using the Digilab calibration verifier. All measurements were obtained from unrestrained, unanesthetized rabbits. One drop of 0.5% propacaine (Ophthetic-Allergen Pharmaceuticals, Inc.) diluted 1:2 with saline was instilled in each eye immediately prior to IOP measurement. Drugs were administered as 1 or 2.5% solution in buffer pH 7.4 or in saline in both eyes of a group of at least four rabbits. Another group of at least three rabbits served as control and was administered the carrier only. IOP was recorded after 30 and 60 minutes and then after 2, 3, 4, 6 and 8 hours following the drug or carrier administration. Values are given as means ± standard error (S.E.) of the mean. The significance of the change was determined using the student's t-test.
The unilateral administration of propranolol oxime hydrochloride 6a was subsequently studied at two different concentrations, 0.5% and 1.0%. Drugs were administered as 0.5% or 1.0% solution in saline in one of the eyes of each animal in a group of five rabbits. The untreated eye of each rabbit served as a control and received vehicle only. IOP was recorded as described above. […]

[10] = tested on: resting heart rate of rats; assay: Effect on resting heart rate in rats; format: in vivo, rat (male Sprague-Dawley); details: 6 mg/kg i.v. (Example 6)
Experimental: as §2

[11] = tested on: Intraocular Pressure (IOP) of Rabbits; assay: Effect on the Intraocular Pressure (IOP) of Rabbits; format: in vivo, rabbit (male New Zealand albino)
Experimental: as §3, with “IOP was recorded after 30 and 60 minutes and then after 2, 3, 4, 6 and 8 hours following the drug or carrier administration.” left out

[12] = aqueous humor, Concentration of propranolol
[13] = aqueous humor, Tissue concentration
[14] = cornea, Concentration of propranolol
[15] = iris-ciliary body, Tissue concentration

Structure (SMILES): CC(C)NCC(=O)COc1cccc2ccccc12 [1-(isopropylamino)-3-(1-naphthyloxy)-2-propanone]
- enzymatic reduction product in iris-ciliary body [1]: The enzymatic reduction product, 1-(isopropylamino)-3-(1-naphthyloxy)-2-propanol, i.e. propranolol, was clearly identified

- spontaneous isomerization [2]: no isomerization of Il was observed
Structure (SMILES): Cc1ccc(Cl)c(OCC(CNC(C)(C)C)=NO)c1 [Il]

Structure (SMILES): CC(C)NCC(O)COc1cccc2ccccc12 (stereo not shown) [Propranolol 1a, 1-(isopropylamino)-3-(1-naphthyloxy)-2-propanol]
- detection of propranolol in rat's blood [3]: not detected in rat's blood
- Concentration of propranolol ([4]; aqueous humor, 120 min.): 0.00 ± 0.00 mcg/g tissue
- Concentration of propranolol ([4]; cornea, 120 min.): 0.00 ± 0.00 mcg/g tissue
- Concentration of propranolol ([4]; iris-ciliary body, 60 min.): 0.00 ± 0.00 mcg/g tissue
- Concentration of propranolol ([4]; iris-ciliary body, 120 min.): 0.00 ± 0.00 mcg/g tissue
- Tissue concentration ([4]; after topical propranolone oxime HCl 6a 1%, aqueous humor, 120 min.): 0.00 ± 0.00 mcg/g tissue
- detection of propranolol in eye compartments ([4]; rabbit, in vivo): could be detected in measurable concentrations in the different eye compartments for the first two hours
- detection of propranolol in eye tissues ([4]; rabbit, in vivo): could not be detected in any of the tested eye tissues
- detection of propranolol in iris-ciliary body ([4]; rabbit, in vivo): completely disappeared from the iris-ciliary body
- concentration at 0.5 h [5, 12]: 1280 ± 190 ng/g
- concentration at 1 h [5, 12]: 260 ± 80 ng/g
- concentration at 0.5 h [5, 13]: 40 ± 20 ng/g
- concentration at 1 h [5, 13]: 710 ± 110 ng/g
- concentration at 0.5 h [5, 14]: 47100 ± 5570 ng/g
- concentration at 1 h [5, 14]: 14500 ± 2970 ng/g
- concentration at 0.5 h ([5]; cornea, Tissue concentration): 1680 ± 750 ng/g
- concentration at 1 h ([5]; cornea, Tissue concentration): 1140 ± 290 ng/g
- concentration at 2 h ([5]; cornea, Tissue concentration): 1140 ± 220 ng/g
- concentration at 0.5 h ([5]; iris-ciliary body, Concentration of propranolol): 8050 ± 1470 ng/g
- concentration at 0.5 h [5, 15]: 2110 ± 290 ng/g
- concentration at 1 h [5, 15]: 1790 ± 200 ng/g
- concentration at 2 h [5, 15]: 430 ± 110 ng/g
- ocular irritation [6]: ocular irritation which always accompanied propranolol administration at both dose levels

Structure (SMILES): CC(C)NCC(COc1cccc2ccccc12)=NO.Cl [Propranolone oxime HCl 6a, 1-(Isopropylamino)-3-(1-naphthyloxy)-2-propanone oxime hydrochloride]
- metabolites identified in cornea [7]: Peaks were identified as the E- and Z-isomers of the ketoxime administered, as the corresponding ketone 1-(isopropylamino)-3-(naphthyloxy)-2-propanone, and as the β-adrenergic antagonist 1-(isopropylamino)-3-(naphthyloxy)-2-propanol(propranol)
- β-adrenergic antagonist activity against isoprenaline-tachycardia [8]: most effective
- decrease in IOP, unilateral administration [9]: Significant decrease in the IOP was observed at both levels, only in the treated eye
- activity on resting heart rate (negative chronotropic action) [10]: highest activity
- % change after treatment (IOP) ([11]; 1% solution, 30 min.): -3.23%
- IOP, treated ([11]; 1% solution, 30 min.): 26.9 ± 0.58 mm/Hg
- % change after treatment (IOP) ([11]; 1% solution, 60 min.): -11.51%
- IOP, treated ([11]; 1% solution, 60 min.): 24.0 ± 0.60 mm/Hg
- % change after treatment (IOP) ([11]; 1% solution, 2 hrs.): -15.82%
- IOP, treated ([11]; 1% solution, 2 hrs.): 23.4 ± 0.51 mm/Hg
- % change after treatment (IOP) ([11]; 1% solution, 3 hrs.): -16.18%
- IOP, treated ([11]; 1% solution, 3 hrs.): 23.3 ± 0.35 mm/Hg
- % change after treatment (IOP) ([11]; 1% solution, 4 hrs.): -20.14%
- IOP, treated ([11]; 1% solution, 4 hrs.): 22.2 ± 0.42 mm/Hg
- % change after treatment (IOP) ([11]; 1% solution, 6 hrs.): -7.08%
- IOP, treated ([11]; 1% solution, 6 hrs.): 25.8 ± 0.56 mm/Hg
- % change after treatment (IOP) ([11]; 1% solution, 8 hrs.): +0.50%
- IOP, treated ([11]; 1% solution, 8 hrs.): 27.9 ± 0.62 mm/Hg
- % change after treatment (IOP) ([11]; 1% solution, time zero): 0.00%
- IOP, treated ([11]; 1% solution, time zero): 27.8 ± 0.62 mm/Hg
- % change after treatment (IOP) ([11]; 2.5% solution, 30 min.): +1.92%
- IOP, treated ([11]; 2.5% solution, 30 min.): 26.5 ± 0.63 mm/Hg
- % change after treatment (IOP) ([11]; 2.5% solution, 60 min.): -10.00%
- IOP, treated ([11]; 2.5% solution, 60 min.): 23.4 ± 0.55 mm/Hg
- % change after treatment (IOP) ([11]; 2.5% solution, 2 hrs.): -13.08%
- IOP, treated ([11]; 2.5% solution, 2 hrs.): 22.6 ± 0.43 mm/Hg
- % change after treatment (IOP) ([11]; 2.5% solution, 3 hrs.): -18.46%
- IOP, treated ([11]; 2.5% solution, 3 hrs.): 21.2 ± 0.28 mm/Hg
- IOP, treated ([11]; 2.5% solution, 4 hrs.): 20.4 ± 0.34 mm/Hg
- % change after treatment (IOP) ([11]; 2.5% solution, 6 hrs.): -9.23%
- IOP, treated ([11]; 2.5% solution, 6 hrs.): 23.6 ± 0.48 mm/Hg
- % change after treatment (IOP) ([11]; 2.5% solution, 8 hrs.): -0.77%
- IOP, treated ([11]; 2.5% solution, 8 hrs.): 25.8 ± 0.65 mm/Hg
- % change after treatment (IOP) ([11]; 2.5% solution, time zero): 0.00%
- IOP, treated ([11]; 2.5% solution, time zero): 26.0 ± 0.48 mm/Hg
- ocular hypotensive activity compared with parent β-blocker ([11]; same dose levels, rabbits): much more pronounced and prolonged than that of propranolol itself
- ocular hypotensive activity (in words) ([11]; topical, rabbits, dose levels used): has shown the highest activity at both tested concentration levels, 1 and 2.5%
- irritant action, unilateral administration ([6]; 0.5% and 1.0% solution in saline, one eye): No irritant action was noted
- ocular irritation [6]: completely devoid of the ocular irritation
